pIC50: −log10 of the molar value.
Legend:
"D" DNA fragment = assay: DNA footprinting, random "D" DNA fragment; type: binding; settings: random "D" DNA sequence
Procedure: The DNA sequence selectivity profile of the molecules was investigated using a modification of the previously established DNA footprinting assay. Following an overnight incubation of the ligand-DNA complexes, the mixture was mixed with strand separation buffer containing 10 mM EDTA, 10 mM NaOH, 0.1% bromophenol blue, 80% formamide and incubated at 100° C. for 3 min. The mixture was then immediately cooled on ice and run on an 8% denaturing gel.
The preparation of the DS3 DNA fragment (FIG. 5) and the “D” DNA fragment (FIG. 6) has been previously described. Briefly, the sequence which had been cloned into the BamHI site of pUC18 was obtained by cutting with HindIII and EcoRI. Radiolabelled DNA fragments were prepared by filling in the 3′-end of the HindIII site with [α-^32P]dATP using Klenow DNA polymerase (exo-).
The radiolabelled DNA fragment was separated from the remainder of the plasmid DNA on a 6% non-denaturing polyacrylamide gel. […]
Footprinting reactions were performed as previously described using the DNA fragments DS3, which contains tracts of AT/GC bases; and using the “D” DNA fragments which represents a random DNA sequence. […] After gel purification, the radiolabelled DNA was dissolved in 10 mM Tris-HCl pH 7.5 containing 0.1 mM EDTA, at a concentration of about 10 c.p.s per μL as determined on a hand held Geiger counter. […]

REH (ALL) = assay: In vitro cytotoxicity, MTT assay, REH; type: cell-based; settings: 72 h, read-out: Cytotoxicity
Procedure: (§1) The in vitro cytotoxicity of a selection of compounds were evaluated in a panel of cell lines using the standard MTT assay for a 72 hour incubation period (Table 2). Free payloads produced cytotoxicities in the nanomolar range.
(§2) Tumor cell lines were maintained in RPMI1640 medium supplemented with 10% heat-inactivated fetal bovine serum, 2 mM L-glutamine and 1 mM sodium pyruvate. 1800 cells per well were seeded in a volume of 180 μl in a 96-well flat bottom polystyrene plate. The cells were allowed to adhere overnight at 37° C. in a CO2 incubator. Ligands were initially formulated in DMSO, and stocks stored at −80° C. They were then further formulated at lox concentration in RPMI1640 medium. 20 ul of diluted samples were added into each treatment well. On each plate, blank wells with no cells, and untreated wells containing cells, were included. Plates were then cultured at 37° C. in a CO2 incubator for 72 hrs. Cytotoxicity was evaluated using a tetrazolium salt-based assay, the MTT assay. After 72 hours, the supernatant was removed from each well and 200 μl of a sterile filtered 500 μg/ml MTT solution in water added to each well. The plates were then incubated at 37° C. in a CO2 incubator for 4 hrs. The supernatant was then removed and the formazan crystals formed solubilized by adding 150 μl of DMSO to each well. The plate was then read on a plate reader at 540 nm, and percentage cell survival calculated as follows: ((mean absorbance treated wells at concentration x−mean absorbance blank wells)+(mean absorbance untreated wells at concentration x−mean absorbance blank wells))×100. Data were plotted as concentration in nM vs. % cell survival in Microsoft Excel, and IC50 values (concentration where cell survival is reduced by a half) were determined from the graph.

SW48 = assay: In vitro cell-killing, MTT assay, SW48; type: cell-based; settings: Homo sapiens, SW48, 72 h, read-out: In vitro cell-killing (IC50), Cytotoxicity (72 hours)
Procedure: as §2, with “The plates were then incubated at 37° C. in a CO2 incubator for 4 hrs. The supernatant was then removed and the formazan crystals formed solubilized by adding 150 μl of DMSO to each well.” left out

A431 (Skin) = assay: In vitro cytotoxicity, MTT assay, A431; type: cell-based; settings: Homo sapiens, A-431, 72 h, read-out: Cytotoxicity
Procedure: as §1, §2

COc1cc2c(cc1OCCCC(=O)Nc1cc(C(=O)Nc3ccc(-c4cc(C(=O)Nc5ccc(N)cc5)n(C)c4)cc3)n(C)c1)NC[C@@H]1CCCCN1C2=O [Compound 16, (S)—N-(4-Aminophenyl)-4-(4-(4-(4-((2-methoxy-12-oxo-5,6,6a,7,8,9,10,12-octahydrobenzo[e]pyrido[1,2-a][1,4]diazepin-3-yl)oxy)butanamido)-1-methyl-1H-pyrrole-2-carboxamido)phenyl)-1-methyl-1H-pyrrole-2-carboxamide]
preferred binding sites (footprint) ("D" DNA fragment): only three preferred sites were observed during this experiment, and all are primarily AT-rich
pIC50 (REH (ALL)): 6.84
pIC50 (SW48): 7.11
pIC50 (A431 (Skin)): 7.21
